Reference: patent US5679701A (priority 1996, dated 1997)
Like-named read-outs stand apart in the source and are kept apart here.

How the values were obtained:
[1] = biological target: T1, ryanodine receptor (skeletal sarcoplasmic reticulum membrane vesicles) (Oryctolagus cuniculus, UniProt P11716); experiment: biochemical; assay type: binding
T1 construct: skeletal sarcoplasmic reticulum membrane vesicles; from tissue; host or cells: skeletal muscle sarcoplasmic reticulum membrane vesicles

[2] = biological target: T2, Sarcoplasmic Reticular Ca^++ -Release Channel (ryanodine receptor) (Oryctolagus cuniculus, UniProt P11716); experiment: biochemical; assay type: binding
T2 construct: skeletal sarcoplasmic reticulum membrane vesicles; from tissue; host or cells: skeletal muscle sarcoplasmic reticulum membrane vesicles
T2 sequence (P11716 whole entry): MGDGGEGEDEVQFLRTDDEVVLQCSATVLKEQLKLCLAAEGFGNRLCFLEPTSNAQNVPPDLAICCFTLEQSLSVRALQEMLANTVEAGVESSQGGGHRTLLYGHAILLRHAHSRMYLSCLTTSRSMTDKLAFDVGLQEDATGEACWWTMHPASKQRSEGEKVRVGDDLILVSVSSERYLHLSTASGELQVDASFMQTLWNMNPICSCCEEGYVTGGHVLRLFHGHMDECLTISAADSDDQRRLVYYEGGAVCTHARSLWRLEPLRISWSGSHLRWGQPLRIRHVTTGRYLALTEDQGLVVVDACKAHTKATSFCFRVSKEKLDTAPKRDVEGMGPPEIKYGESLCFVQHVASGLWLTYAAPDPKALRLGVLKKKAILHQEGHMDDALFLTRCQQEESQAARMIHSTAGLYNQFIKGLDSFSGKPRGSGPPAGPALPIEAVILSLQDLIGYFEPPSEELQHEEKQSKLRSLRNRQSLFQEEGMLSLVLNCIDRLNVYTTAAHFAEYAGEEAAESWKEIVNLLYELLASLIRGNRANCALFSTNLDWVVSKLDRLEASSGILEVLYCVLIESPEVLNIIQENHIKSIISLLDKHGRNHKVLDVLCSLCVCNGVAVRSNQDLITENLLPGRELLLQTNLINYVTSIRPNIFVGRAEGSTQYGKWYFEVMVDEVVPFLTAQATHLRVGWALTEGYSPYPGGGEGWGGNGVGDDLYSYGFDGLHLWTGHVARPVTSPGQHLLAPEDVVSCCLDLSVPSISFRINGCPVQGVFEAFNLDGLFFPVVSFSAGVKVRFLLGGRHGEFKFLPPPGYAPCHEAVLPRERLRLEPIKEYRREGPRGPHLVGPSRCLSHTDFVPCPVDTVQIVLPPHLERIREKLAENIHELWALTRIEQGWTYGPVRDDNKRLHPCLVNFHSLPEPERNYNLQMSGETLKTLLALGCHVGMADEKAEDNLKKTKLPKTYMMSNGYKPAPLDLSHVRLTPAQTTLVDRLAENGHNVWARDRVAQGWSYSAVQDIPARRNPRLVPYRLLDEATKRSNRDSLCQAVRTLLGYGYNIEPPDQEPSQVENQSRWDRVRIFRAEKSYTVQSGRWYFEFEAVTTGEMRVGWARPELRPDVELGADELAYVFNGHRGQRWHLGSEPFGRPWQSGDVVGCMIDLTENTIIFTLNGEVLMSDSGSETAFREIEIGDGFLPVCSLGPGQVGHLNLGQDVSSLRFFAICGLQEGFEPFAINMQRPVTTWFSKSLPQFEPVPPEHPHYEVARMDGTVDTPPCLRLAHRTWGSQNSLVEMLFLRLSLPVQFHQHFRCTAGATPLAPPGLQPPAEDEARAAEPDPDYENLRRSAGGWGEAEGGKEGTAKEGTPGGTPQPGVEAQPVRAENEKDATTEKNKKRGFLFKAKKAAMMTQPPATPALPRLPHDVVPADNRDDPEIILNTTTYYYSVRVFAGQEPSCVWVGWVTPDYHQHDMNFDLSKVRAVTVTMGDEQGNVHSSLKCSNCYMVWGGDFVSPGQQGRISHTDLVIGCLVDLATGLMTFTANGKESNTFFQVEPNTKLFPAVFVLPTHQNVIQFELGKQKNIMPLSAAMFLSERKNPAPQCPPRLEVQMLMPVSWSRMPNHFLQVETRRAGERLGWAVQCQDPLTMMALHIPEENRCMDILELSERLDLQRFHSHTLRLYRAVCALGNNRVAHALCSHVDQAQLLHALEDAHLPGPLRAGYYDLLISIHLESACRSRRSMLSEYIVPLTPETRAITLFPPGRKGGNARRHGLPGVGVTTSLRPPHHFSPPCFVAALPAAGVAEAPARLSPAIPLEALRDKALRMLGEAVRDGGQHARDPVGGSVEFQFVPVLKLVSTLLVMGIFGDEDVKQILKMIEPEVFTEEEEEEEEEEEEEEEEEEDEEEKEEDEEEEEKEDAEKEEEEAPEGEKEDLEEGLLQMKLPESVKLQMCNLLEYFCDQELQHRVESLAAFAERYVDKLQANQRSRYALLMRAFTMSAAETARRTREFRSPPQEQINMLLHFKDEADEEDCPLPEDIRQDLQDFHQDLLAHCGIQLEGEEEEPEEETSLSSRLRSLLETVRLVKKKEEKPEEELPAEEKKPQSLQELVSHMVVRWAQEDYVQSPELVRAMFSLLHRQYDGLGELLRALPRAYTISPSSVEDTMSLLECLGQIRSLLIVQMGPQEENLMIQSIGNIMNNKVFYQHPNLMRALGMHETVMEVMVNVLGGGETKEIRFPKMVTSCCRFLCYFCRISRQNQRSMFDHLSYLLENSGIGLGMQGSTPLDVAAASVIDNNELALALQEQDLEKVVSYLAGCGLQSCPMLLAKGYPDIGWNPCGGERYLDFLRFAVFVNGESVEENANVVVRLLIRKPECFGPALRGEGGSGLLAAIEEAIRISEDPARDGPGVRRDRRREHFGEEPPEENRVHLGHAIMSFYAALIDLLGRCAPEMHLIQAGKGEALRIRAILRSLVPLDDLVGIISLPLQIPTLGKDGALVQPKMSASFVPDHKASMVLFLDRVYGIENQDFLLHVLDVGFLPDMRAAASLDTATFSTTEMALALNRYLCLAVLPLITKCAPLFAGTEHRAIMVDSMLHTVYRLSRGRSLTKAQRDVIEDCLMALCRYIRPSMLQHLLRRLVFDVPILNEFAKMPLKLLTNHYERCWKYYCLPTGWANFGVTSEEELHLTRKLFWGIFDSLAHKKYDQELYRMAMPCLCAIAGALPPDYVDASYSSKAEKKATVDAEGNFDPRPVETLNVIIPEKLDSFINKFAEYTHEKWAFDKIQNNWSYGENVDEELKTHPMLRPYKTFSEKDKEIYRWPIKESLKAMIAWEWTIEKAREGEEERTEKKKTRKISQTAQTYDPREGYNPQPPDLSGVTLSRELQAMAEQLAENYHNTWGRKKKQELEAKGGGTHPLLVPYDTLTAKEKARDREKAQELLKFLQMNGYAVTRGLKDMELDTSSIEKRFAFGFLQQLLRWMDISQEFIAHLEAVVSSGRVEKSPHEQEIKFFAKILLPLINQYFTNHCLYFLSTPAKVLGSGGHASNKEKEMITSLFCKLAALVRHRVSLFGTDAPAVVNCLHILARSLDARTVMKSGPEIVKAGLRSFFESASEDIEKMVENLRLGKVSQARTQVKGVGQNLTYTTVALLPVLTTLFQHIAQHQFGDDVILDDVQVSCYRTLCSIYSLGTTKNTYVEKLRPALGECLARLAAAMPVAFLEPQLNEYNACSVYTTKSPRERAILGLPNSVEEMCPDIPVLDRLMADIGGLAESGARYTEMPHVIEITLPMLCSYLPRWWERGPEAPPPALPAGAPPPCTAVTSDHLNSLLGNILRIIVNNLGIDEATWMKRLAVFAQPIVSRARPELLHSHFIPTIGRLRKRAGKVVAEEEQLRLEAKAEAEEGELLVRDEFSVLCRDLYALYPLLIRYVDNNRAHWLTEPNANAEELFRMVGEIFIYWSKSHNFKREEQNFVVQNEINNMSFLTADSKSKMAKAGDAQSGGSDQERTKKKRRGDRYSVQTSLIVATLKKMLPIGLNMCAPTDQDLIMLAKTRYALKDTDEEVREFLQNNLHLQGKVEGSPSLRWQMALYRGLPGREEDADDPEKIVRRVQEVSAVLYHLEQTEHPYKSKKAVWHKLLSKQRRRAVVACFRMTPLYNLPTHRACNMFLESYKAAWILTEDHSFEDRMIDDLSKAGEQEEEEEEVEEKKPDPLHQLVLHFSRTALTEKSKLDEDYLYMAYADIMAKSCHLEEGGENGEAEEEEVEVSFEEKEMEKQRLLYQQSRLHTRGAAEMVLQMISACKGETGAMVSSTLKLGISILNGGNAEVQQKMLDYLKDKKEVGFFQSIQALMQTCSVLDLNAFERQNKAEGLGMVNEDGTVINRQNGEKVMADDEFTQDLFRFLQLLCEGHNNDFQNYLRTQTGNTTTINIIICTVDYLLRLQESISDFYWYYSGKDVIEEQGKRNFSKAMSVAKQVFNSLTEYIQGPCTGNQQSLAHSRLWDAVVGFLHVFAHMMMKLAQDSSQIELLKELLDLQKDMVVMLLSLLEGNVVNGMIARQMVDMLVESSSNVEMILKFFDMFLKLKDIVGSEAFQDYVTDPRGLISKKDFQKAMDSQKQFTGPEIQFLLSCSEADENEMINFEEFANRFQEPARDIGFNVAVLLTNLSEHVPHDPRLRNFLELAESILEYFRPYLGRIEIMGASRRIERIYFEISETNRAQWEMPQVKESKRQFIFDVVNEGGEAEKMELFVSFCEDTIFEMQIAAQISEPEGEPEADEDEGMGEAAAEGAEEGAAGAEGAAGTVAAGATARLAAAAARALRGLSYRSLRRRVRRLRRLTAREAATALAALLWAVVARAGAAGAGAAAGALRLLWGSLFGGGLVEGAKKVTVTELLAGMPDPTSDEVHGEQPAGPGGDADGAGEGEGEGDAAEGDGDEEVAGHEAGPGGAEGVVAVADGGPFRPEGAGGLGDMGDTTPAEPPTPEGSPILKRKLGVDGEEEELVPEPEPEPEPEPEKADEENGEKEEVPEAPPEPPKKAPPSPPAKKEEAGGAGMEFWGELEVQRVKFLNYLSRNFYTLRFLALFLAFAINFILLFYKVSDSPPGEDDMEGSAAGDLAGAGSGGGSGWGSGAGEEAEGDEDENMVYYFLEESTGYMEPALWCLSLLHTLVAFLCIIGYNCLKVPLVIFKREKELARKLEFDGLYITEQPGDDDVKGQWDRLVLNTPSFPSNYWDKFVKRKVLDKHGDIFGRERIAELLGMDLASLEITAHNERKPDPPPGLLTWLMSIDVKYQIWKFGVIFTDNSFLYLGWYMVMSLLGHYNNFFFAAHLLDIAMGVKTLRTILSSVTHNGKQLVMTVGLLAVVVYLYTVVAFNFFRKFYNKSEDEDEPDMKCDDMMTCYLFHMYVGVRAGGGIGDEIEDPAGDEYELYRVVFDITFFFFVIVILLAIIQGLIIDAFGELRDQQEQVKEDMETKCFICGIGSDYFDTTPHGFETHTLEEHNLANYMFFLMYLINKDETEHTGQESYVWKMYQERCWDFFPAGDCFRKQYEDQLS

[3] = Table I, displacement of 6.7 nM [3H]ryanodine, mean ± standard deviation of replicates, read-out: IC50
[4] = Table I, mean ± standard deviation of replicates, read-out: KD
[5] = first embodiment, read-out: IC50
[6] = Table II, more highly purified standards, read-out: IC50 (nM) ± S.D.

T1 sequence (P11716 whole entry): as above

SMILES | IC50 [1, 3] | Kd [1, 4] | IC50 [1, 5] | Kd ([1]; first embodiment, read-out: KD) | also measured
C=C1CCC2(O)C3(C)CC4(O)OC2(C1OC(=O)CCNC(=O)c1ccccc1)C1(O)C3(O)C(OC(=O)c2ccc[nH]2)C(O)(C(C)C)C41C (stereo not drawn) [II, O10eg -(N-Benzoyl-β-alanyl)-Dehydroryanodine] | 25.1 ± 8.2 nM | 8.2 ± 3.2 nM | – | – | –
C=C1CCC2(O)C3(C)CC4(O)OC2(C1OC(=O)CCNC(=O)C12CC5CC(CC(C5)C1)C2)C1(O)C3(O)C(OC(=O)c2ccc[nH]2)C(O)(C(C)C)C41C (stereo not drawn) [III, O10eq-[N-(1-Adamantanecarbonyl)-β-Alanyl]-Dehydroryanodine] | 72.8 ± 6.2 nM | 26.9 ± 3.6 nM | – | – | –
CC1=C(C(C)C)C(OC(=O)c2ccc[nH]2)C2(O)C3(C)CC(=O)OC4(C(OC(=O)CCN)C(C)CCC34O)C12O (stereo not drawn) [V-I, O10eq -β-Alanyl-Anhydroryanodine] | 37 nM | – | 106 nM | 37 nM | binding affinity as fraction of that of Ryanodine ([1]; vs ryanodine): 1/10
CC1CCC2(O)C3(C)CC4(O)OC2(C1OC(=O)CCNC(=O)c1cc(N=[N+]=[N-])ccc1[N+](=O)[O-])C1(O)C3(O)C(OC(=O)c2ccc[nH]2)C(O)(C(C)C)C41C (stereo not drawn) [VI, O10eq-[N-(5-Azido-2-nitrobenzoyl)-β-Alanyl] Ryanodine] | 36.6 ± 2.8 nM | 12.5 ± 1 nM | 36.6 ± 2.8 nM | 12.5 ± 1 nM | binding affinity for the ryanodine receptor (in words) [1]: of a similar magnitude as that of ryanodine; Kd ([1]; VI prepared from V-II, read-out: KD (50)): 12.5 ± 1 nM; IC50 ([1]; VI prepared from V, read-out: IC50): 37.2 ± 9.7 nM; Kd ([1]; VI prepared from V, read-out: KD): 14 ± 3.6 nM
C=C1CCC2(O)C3(C)CC4(O)OC2(C1OC(=O)CCNC(=O)c1ccc(I)cc1)C1(O)C3(O)C(OC(=O)c2ccc[nH]2)C(O)(C(C)C)C41C (stereo not drawn) [XII, p-Iodobenzoyl-β-alanyl-dehydroryanodine] | 16 nM | 5.2 nM | 16 nM | 5.2 nM | binding affinity for the ryanodine receptor (in words) [1]: binds effectively to the ryanodine receptor
C=C1CCC2(O)C3(C)CC4(O)OC2(C1OC(=O)CCNC(=O)c1ccc(OCCCC)cc1)C1(O)C3(O)C(OC(=O)c2ccc[nH]2)C(O)(C(C)C)C41C (stereo not drawn) [XIII, O10eq-[N-(p-n-Butoxybenzoyl)-β-Alanyl]-Dehydroryanodine] | 28 ± 6.6 nM | 9.7 ± 2.5 nM | 20.2 nM | 6 nM | –
CC1CCC2(O)C3(C)CC4(O)OC2(C1OC(=O)CCNC(=O)CCCCC1SCC2NC(=O)NC21)C1(O)C3(O)C(OC(=O)c2ccc[nH]2)C(O)(C(C)C)C41C (stereo not drawn) [XIV, O10eq -N-Biotinlyl-β-Alanyl-Ryanodine] | 65.1 ± 5.5 nM | 24.9 ± 1.4 nM | 65.1 ± 3.5 nM | 24.9 ± 1.4 nM | –
CC1=CC(C)=[N+]2C1=Cc1ccc(CCC(=O)NCCC(=O)OC3C(C)CCC4(O)C5(C)CC6(O)OC34C3(O)C5(O)C(OC(=O)c4ccc[nH]4)C(O)(C(C)C)C63C)n1[B-]2(F)F (stereo not drawn) [XV, O10eq -N-BODIPY(FL C3)-β-Alanyl-Ryanodine] | 41.2 ± 2.7 nM | 15.8 ± 1 nM | 41.2 ± 2.7 nM | 15.8 ± 1 nM | –
C=C1CCC2(O)C3(C)CC4(O)OC2(C1OC(=O)CCC(=O)O)C1(O)C3(O)C(OC(=O)c2ccc[nH]2)C(O)(C(C)C)C41C (stereo not drawn) [XVII, Dehydroryanodine-O10eg -Hemi-Succinate] | – | – | – | – | IC50 ([1]; IC50 (nM)): > 1000 nM
CC1CCC2(O)C3(C)CC4(O)OC2(C1OC(=O)CCNC(=NC(=O)OCc1ccccc1)NC(=O)OCc1ccccc1)C1(O)C3(O)C(OC(=O)c2ccc[nH]2)C(O)(C(C)C)C41C (stereo not drawn) [XX, O10eq -β-N,N'-bis-Cbz-guanidino-propionyl-ryanodine] | – | – | – | – | IC50 [2, 6]: 43.6 nM; lessened affinity compared with ryanodine ([2]; vs ryanodine): 7-20 fold
CC1CCC2(O)C3(C)CC4(O)OC2(C1OC(=O)CN)C1(O)C3(O)C(OC(=O)c2ccc[nH]2)C(O)(C(C)C)C41C (stereo not drawn) [XXII, O10eq -glycyl-ryanodine] | – | – | – | – | IC50 [2, 6]: 1.8 ± 0.4 nM
CC1CCC2(O)C3(C)CC4(O)OC2(C1OC(=O)CNC(=NC(=O)OCc1ccccc1)NC(=O)OCc1ccccc1)C1(O)C3(O)C(OC(=O)c2ccc[nH]2)C(O)(C(C)C)C41C (stereo not drawn) [XXIII, O10eq -N,N'-bis-(Cbz)-guanidinoacetyl-ryanodine] | – | – | – | – | lessened affinity compared with ryanodine [2]: 7-20 fold; IC50 ([2]; IC50 (nM) ± S.D.): 136 nM
